In ChEMBL document CHEMBL5104202, “Structure-Uptake Relationship Studies of Oxazolidinones in Gram-Negative ESKAPE Pathogens” (J Med Chem, 2022) one finds IC50 data, which are given here for nine molecules.

Assay type in all cases: functional, organism-based
For assay [1], the system named is Pseudomonas aeruginosa. The experiment in a line: Antibacterial activity against wild type Pseudomonas aeruginosa assessed as inhibition of bacterial growth.
For assay [2], the system named is Pseudomonas aeruginosa. The experiment in a line: Antibacterial activity against efflux pump lacking Pseudomonas aeruginosa assessed as inhibition of bacterial growth.
In assay [3] the test system is Acinetobacter baumannii. The experiment in a line: Antibacterial activity against recombinant OM pore producing Acinetobacter baumannii assessed as inhibition of bacterial growth.
The subject of assay [4] is Escherichia coli. The assay can be described thus: Antibacterial activity against wild type Escherichia coli assessed as inhibition of bacterial growth.
The test system of assay [5] is Escherichia coli. The experiment in a line: Antibacterial activity against efflux pump lacking/recombinant OM pore producing Escherichia coli assessed as inhibition of bacterial growth.
The subject of assay [6] is Pseudomonas aeruginosa. The assay can be described thus: Antibacterial activity against recombinant OM pore producing Pseudomonas aeruginosa assessed as inhibition of bacterial growth.
Assay [7] deals with Acinetobacter baumannii. The assay can be described thus: Antibacterial activity against efflux pump lacking Acinetobacter baumannii assessed as inhibition of bacterial growth.
The subject of assay [8] is Pseudomonas aeruginosa. The experiment in a line: Antibacterial activity against efflux pump lacking/recombinant OM pore producing Pseudomonas aeruginosa assessed as inhibition of bacterial growth.
Assay [9] concerns Acinetobacter baumannii. The assay can be described thus: Antibacterial activity against efflux pump lacking/recombinant OM pore producing Acinetobacter baumannii assessed as inhibition of bacterial growth.
Assay [10] concerns Acinetobacter baumannii. The assay can be described thus: Antibacterial activity against wild type Acinetobacter baumannii assessed as inhibition of bacterial growth.
In assay [11] the test system is Escherichia coli. The experiment in a line: Antibacterial activity against efflux pump lacking Escherichia coli assessed as inhibition of bacterial growth.
Assay [12] concerns Escherichia coli. The assay can be described thus: Antibacterial activity against recombinant OM pore producing Escherichia coli assessed as inhibition of bacterial growth.

As a reminder, the IC50 is the concentration that inhibits the measured activity by half. Consider `CC(C)(C)OC(=O)NNC(=O)C(CC#Cc1ccc(N2C[C@H](CO)OC2=O)cc1F)NC(=O)OC(C)(C)C` (stereo partly drawn), for which the half-maximal inhibitory concentration (IC50) in the assay with Pseudomonas aeruginosa [1] is greater than 100 µM; in the assay with Pseudomonas aeruginosa [2] it was greater than 100 µM; in the assay on Acinetobacter baumannii [3], greater than 100 µM; in the assay with Escherichia coli [4], greater than 100 µM; with Escherichia coli [5], 56.1 µM; with Pseudomonas aeruginosa [6] it was greater than 100 µM. The half-inhibitory concentration (IC50) in the assay with Acinetobacter baumannii [7] is greater than 100 µM; in the assay on Pseudomonas aeruginosa [8], greater than 100 µM; in the assay with Acinetobacter baumannii [9] it was greater than 100 µM; with Acinetobacter baumannii [10], greater than 100 µM; in the assay with Escherichia coli [11], 13.3 µM; in the assay on Escherichia coli [12], 51.4 µM.

In the case of `COC(=O)c1ccccc1-c1ccc(N2C[C@H](CO)OC2=O)cc1F`, the IC50 was greater than 100 µM with Pseudomonas aeruginosa [1]; greater than 100 µM with Pseudomonas aeruginosa [2]; greater than 100 µM with Acinetobacter baumannii [3]; 96 µM in the assay with Escherichia coli [4]; 39.7 µM with Escherichia coli [5]; greater than 100 µM with Pseudomonas aeruginosa [6]. The IC50 with Acinetobacter baumannii [7] was greater than 100 µM; in the assay with Pseudomonas aeruginosa [8] it was greater than 100 µM; in the assay on Acinetobacter baumannii [9] it was greater than 100 µM; in the assay with Acinetobacter baumannii [10] it was greater than 100 µM; in the assay with Escherichia coli [11] it was 64.6 µM; in the assay on Escherichia coli [12] it was 61.5 µM.

With `O=C1O[C@@H](CO)CN1c1ccc(-c2cnoc2)c(F)c1`, the IC50 was greater than 100 µM in the assay with Pseudomonas aeruginosa [1]; 22.7 µM with Pseudomonas aeruginosa [2]; greater than 100 µM with Acinetobacter baumannii [3]; greater than 100 µM in the assay with Escherichia coli [4]; 30.6 µM in the assay on Escherichia coli [5]; greater than 100 µM in the assay with Pseudomonas aeruginosa [6]. The IC50 was 83.4 µM in the assay on Acinetobacter baumannii [7]; 32.9 µM in the assay on Pseudomonas aeruginosa [8]; 83.4 µM with Acinetobacter baumannii [9]; greater than 100 µM in the assay with Acinetobacter baumannii [10]; 23.6 µM with Escherichia coli [11]; 56.1 µM in the assay with Escherichia coli [12].

As to `O=C(O)CNCC#Cc1ccc(N2C[C@H](CO)OC2=O)cc1F`, the IC50 in the assay with Pseudomonas aeruginosa [1], in the assay on Pseudomonas aeruginosa [2], with Acinetobacter baumannii [3], in the assay on Escherichia coli [4], in the assay with Escherichia coli [5] and in the assay with Pseudomonas aeruginosa [6] was greater than 100 µM each time. The IC50 with Acinetobacter baumannii [7], with Pseudomonas aeruginosa [8], in the assay on Acinetobacter baumannii [9], with Acinetobacter baumannii [10], with Escherichia coli [11] and with Escherichia coli [12] was greater than 100 µM each time.

For the molecule `CCOC(=O)C1CCN(CC#Cc2ccc(N3C[C@H](CO)OC3=O)cc2F)CC1`, the IC50 with Pseudomonas aeruginosa [1], in the assay on Pseudomonas aeruginosa [2], in the assay with Acinetobacter baumannii [3], with Escherichia coli [4], in the assay with Escherichia coli [5] and with Pseudomonas aeruginosa [6] was greater than 100 µM in each case. Moreover, the IC50 in the assay with Acinetobacter baumannii [7], with Pseudomonas aeruginosa [8], in the assay on Acinetobacter baumannii [9], in the assay with Acinetobacter baumannii [10], in the assay with Escherichia coli [11] and in the assay on Escherichia coli [12] was greater than 100 µM each time.

For the molecule `N/C(=N/O)c1ccc(-c2ccc(N3C[C@H](CO)OC3=O)cc2F)cc1`, the half-inhibitory concentration (IC50) was greater than 100 µM in the assay with Pseudomonas aeruginosa [1]; 5.1 µM with Pseudomonas aeruginosa [2]; 2.8 µM in the assay with Acinetobacter baumannii [3]; 55.9 µM with Escherichia coli [4]; 1 µM with Escherichia coli [5]; 63.6 µM in the assay with Pseudomonas aeruginosa [6]. Moreover, the IC50 stood at 1.2 µM with Acinetobacter baumannii [7]; 1.8 µM in the assay with Pseudomonas aeruginosa [8]; 0.9 µM with Acinetobacter baumannii [9]; 22.1 µM in the assay with Acinetobacter baumannii [10]; 0.6 µM in the assay on Escherichia coli [11]; 7.5 µM in the assay with Escherichia coli [12].

Consider `O=C1O[C@@H](CO)CN1c1ccc(-c2ccc(-c3cccnc3)cc2)c(F)c1`, for which the IC50 in the assay on Pseudomonas aeruginosa [1], in the assay on Pseudomonas aeruginosa [2], with Acinetobacter baumannii [3], in the assay with Escherichia coli [4], in the assay with Escherichia coli [5] and in the assay on Pseudomonas aeruginosa [6] was greater than 100 µM in each case. Moreover, the 50% inhibitory concentration (IC50) in the assay with Acinetobacter baumannii [7], in the assay on Pseudomonas aeruginosa [8], in the assay with Acinetobacter baumannii [9], in the assay with Acinetobacter baumannii [10], with Escherichia coli [11] and with Escherichia coli [12] was greater than 100 µM each time.

For the molecule `O=Cc1ccc(-c2ccc(N3C[C@H](CO)OC3=O)cc2F)cc1`, the IC50 is greater than 100 µM with Pseudomonas aeruginosa [1]; 1.1 µM in the assay on Pseudomonas aeruginosa [2]; 16.9 µM in the assay with Acinetobacter baumannii [3]; 66.8 µM in the assay on Escherichia coli [4]; 0.5 µM in the assay with Escherichia coli [5]; 5.9 µM in the assay on Pseudomonas aeruginosa [6]. The 50% inhibitory concentration (IC50) came to 1.1 µM in the assay with Acinetobacter baumannii [7]; 0.02 µM with Pseudomonas aeruginosa [8]; 1.2 µM with Acinetobacter baumannii [9]; 18.4 µM in the assay on Acinetobacter baumannii [10]; 0.6 µM with Escherichia coli [11]; 5 µM with Escherichia coli [12].

For `O=C1O[C@@H](CO)CN1c1ccc(-c2cccc(S(=O)(=O)C(F)(F)F)c2)c(F)c1`, the IC50 is greater than 100 µM with Pseudomonas aeruginosa [1]; greater than 100 µM in the assay on Pseudomonas aeruginosa [2]; greater than 100 µM with Acinetobacter baumannii [3]; greater than 100 µM in the assay with Escherichia coli [4]; 12.5 µM in the assay on Escherichia coli [5]; greater than 100 µM with Pseudomonas aeruginosa [6]. Further, the concentration for half-maximal inhibition (IC50) is 48.8 µM in the assay on Acinetobacter baumannii [7]; greater than 100 µM with Pseudomonas aeruginosa [8]; 38.5 µM in the assay with Acinetobacter baumannii [9]; greater than 100 µM in the assay on Acinetobacter baumannii [10]; 19.3 µM in the assay with Escherichia coli [11]; 21.2 µM in the assay with Escherichia coli [12].
